This passage reports EC50, oral absorption properties and hydrolysis in serum results from patent US8722719B2, “Amine compound and use for same” (Kureha Corporation, priority 2010, dated 2014).

The subject of data set [1] is HIV-1 IIIB infected MT-4 cells. Put plainly: anti-HIV activity test (MTT viable cell count). It is filed as cell-based. The conditions noted are these: Human immunodeficiency virus 1, MT4, 120 h, MOI 0.01, 5 days, MTT method, read-out: EC50 (concentration at which cellular damage due to HIV infection is inhibited by 50%). Here is the method:
In Test Example 1, the amine compound according to the present invention was subjected to the anti-HIV activity test. HIV-1 IIIB infected MT-4 cells (3.0×10^4 cells/well, MOI (multiplicity of infection): 0.01) were added to a 96-well microtiter plate together with the test compound (compound 1, A, or B) at a different concentration immediately after infection. After culturing the cells at 37° C. for 5 days using a carbon dioxide incubator, the number of viable cells was measured by the MTT (tetrazolium) method ([…] et al., J. Virol. Method, 20, 309-321, 1988).
(Formazan colour is commonly taken as a measure of viable cells.)

Data set [2] in a line: oral absorption properties.
Data set [3] can be described thus: hydrolysis in serum (background finding of the inventors). It is filed as in vitro ADME. The conditions noted are these: species not stated.

The structures appear in SMILES notation.

With `CCCN(CCC)CCCCN(CCC(=O)OCCN(C)C)Cc1ccc(CN(Cc2ncc[nH]2)Cc2nccn2C)cc1` [Compound 1, 2-dimethylaminoethyl 3-[(4-dipropylaminobutyl)(4-{[(1H-imidazol-2-ylmethyl)(1-methyl-1H-imidazol-2-ylmethyl)amino]methyl}benzyl)amino]propionate], the EC50 in data set [1] was found to be 3 nM.
As for `CCCN(CCC)CCCCN(CCC(=O)O)Cc1ccc(CN(Cc2ncc[nH]2)Cc2nccn2C)cc1` [Compound A, 3-[(4-dipropylaminobutyl)(4-{[(1H-imidazol-2-ylmethyl)(1-methyl-1H-imidazol-2-ylmethyl)amino]methyl}benzyl)amino]propionic acid], in data set [1], the EC50 was determined as 3 nM. For the same compound, the oral absorption properties result in data set [2] was “poor oral absorption properties”.
For the compound `CCCN(CCC)CCCCN(CCC(=O)OCC)Cc1ccc(CN(Cc2ncc[nH]2)Cc2nccn2C)cc1` [Compound B, ethyl 3-[(4-dipropylaminobutyl)(4-{[(1H-imidazol-2-ylmethyl)(1-methyl-1H-imidazol-2-ylmethyl)amino]methyl}benzyl)amino]propionate], in data set [3], the hydrolysis in serum result was “hydrolyzed to only a small extent in serum”. The EC50 in data set [1] worked out at 3 nM.
